The values below are quoted from earlier work in patent US20210275546A1, “HIGH DRUG LOAD SOLID ORAL DOSAGE FORMS OF DEXAMETHASONE” (Jubilant Pharma Holdings Inc., priority 2020, published 2021).

“Also recorded” adds a separate entry of the source.

For `C[C@@H]1C[C@H]2[C@@H]3CCC4=CC(=O)C=C[C@]4(C)[C@@]3(F)[C@@H](O)C[C@]2(C)[C@@]1(O)C(=O)CO` [Dexamethasone, 9-fluoro-11β,17,21trihydroxy-16α-methylpregna-1,4-diene-3,20-dione], the solubility in acetone result (acetone) was “sparingly soluble”. Besides, where the note is “dichloromethane”, the solubility in dichloromethane result is “slightly soluble”. In addition, the solubility in ethanol result (ethanol) was “sparingly soluble”. The solubility in methanol result (methanol) is given as “sparingly soluble”. For the same compound, the solubility in water result (water) is given as “practically insoluble; also recorded: poorly water-soluble”.
